Assay results: patent US20240391936A1, “TETRAHYDROTHIENO PYRIDINE DERIVATIVES AS DDRS INHIBITORS” (CHIESI FARMACEUTICI S.P.A., priority 2021, published 2024)

Tests used:
[1] = target: T1, DDR2 (Homo sapiens, UniProt Q16832); assay: DDR2 binding assay (LanthaScreen Europium Kinase Binding assay); parameters: purchased Life Technologies; settings: binding assay, 5 nM DDR2, 10 nM Kinase Tracer 178; Ki from IC50 by Cheng-Prusoff; read-out: Ki DDR2
T1 sequence (Q16832 22-855): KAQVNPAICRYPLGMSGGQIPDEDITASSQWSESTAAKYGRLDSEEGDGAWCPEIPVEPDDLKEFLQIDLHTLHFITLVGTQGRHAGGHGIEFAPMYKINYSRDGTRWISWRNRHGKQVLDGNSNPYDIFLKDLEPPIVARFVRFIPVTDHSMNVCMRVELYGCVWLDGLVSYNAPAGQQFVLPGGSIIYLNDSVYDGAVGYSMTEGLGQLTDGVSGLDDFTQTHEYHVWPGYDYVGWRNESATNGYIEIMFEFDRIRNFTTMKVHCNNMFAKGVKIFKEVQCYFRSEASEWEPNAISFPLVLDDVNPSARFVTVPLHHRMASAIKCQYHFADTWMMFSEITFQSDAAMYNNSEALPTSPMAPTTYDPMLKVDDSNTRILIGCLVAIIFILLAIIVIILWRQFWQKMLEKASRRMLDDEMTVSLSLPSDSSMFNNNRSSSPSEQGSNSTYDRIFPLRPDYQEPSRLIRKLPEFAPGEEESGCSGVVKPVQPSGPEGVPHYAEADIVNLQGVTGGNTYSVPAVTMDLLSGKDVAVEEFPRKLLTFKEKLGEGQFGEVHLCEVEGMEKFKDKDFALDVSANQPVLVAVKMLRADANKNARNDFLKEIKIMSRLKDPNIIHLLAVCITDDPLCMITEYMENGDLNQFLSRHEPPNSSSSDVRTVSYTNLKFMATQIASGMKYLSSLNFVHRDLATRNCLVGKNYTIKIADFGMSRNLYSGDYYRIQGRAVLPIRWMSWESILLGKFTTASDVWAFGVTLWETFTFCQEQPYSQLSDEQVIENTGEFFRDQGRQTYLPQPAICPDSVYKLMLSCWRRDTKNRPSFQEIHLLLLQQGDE
How it was run: (§1)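 Compounds incubated 1 h at room temperature with 5 nM kinase, Kinase Tracer 178 (20 nM for DDR1, 10 nM for DDR2) and 2 nM Eu-anti-GST antibody in pH 7.5 HEPES/MgCl2/EGTA/BRIJ35 buffer. TR-FRET 665/615 nm ratio read after 340 nm excitation; IC50 from 4-parameter fit, converted to Ki by Cheng-Prusoff.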

[2] = target: T2, DDR1 (Homo sapiens, UniProt Q08345); assay: DDR1 binding assay (LanthaScreen Europium Kinase Binding assay); parameters: purchased Carna Biosciences; settings: binding assay, 5 nM DDR1, 20 nM Kinase Tracer 178; Ki from IC50 by Cheng-Prusoff; read-out: Ki DDR1
How it was run: as §1

[3] = target: T1, DDR2; assay: DDR2 cell based assay (phospho-ELISA in HEK293T-DDR2 recombinant cells); parameters: expressed in transfected cells; host or cells: HEK293T-DDR2 recombinant cells; settings: bovine Type II Collagen 50 μg/ml
Procedure: The inhibition of DDR2 phosphorylation by compounds was evaluated in HEK293T-DDR2 recombinant cells by phospho-ELISA assay. Briefly, HEK293T-DDR2 cells were seeded in poly-D-lysine-coated 24-well plates at a density of 250.000 cells/well and incubated for 1.5 hours at 37° C. and 5% CO2 in DMEM+10% FBS. After that, the medium was changed to serum-free DMEM and cells were incubated for 3 hours. Then. test compounds were added at different concentrations 30 minutes before stimulation with bovine Type II Collagen at 50 μg/ml for further 3 hours. For DDR2 phospho-ELISA assay (DuoSet IC Human Phospho-DDR2; R&D Systems), protein extracts were obtained by adding 60 μl/well of lysis buffer prepared according to the manufacturer's instructions. Protein concentration in the samples was determined by BCA assay and the levels of phospho-DDR2 were determined following R&D Systems indications. Raw data were normalized to maximal inhibition control (0% for normalization) and positive control (100% for normalization; cells treated with […] collagen II) and IC50 parameters were calculated in GraphPad Prism 8.0 software, using sigmoidal dose-response curve fitting with variable slope.

[4] = target: T2, DDR1; assay: DDR1 cell based assay (PathHunter U2OS DDR1 assay); parameters: host or cells: U2OS-DDR1 (PathHunter); settings: U2OS-DDR1 cells, bovine Type II Collagen 20 μg/ml
How it was run: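 U2OS-DDR1 PathHunter cells preincubated 30 min with compound, then stimulated overnight at 37 °C with 20 μg/ml bovine type II collagen. Luminescent complementation signal read after 1 h detection at room temperature; normalized to vehicle (0%) and collagen-only (100%) controls, IC50 from variable-slope sigmoidal fit.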

T2 sequence (Q08345 19-913): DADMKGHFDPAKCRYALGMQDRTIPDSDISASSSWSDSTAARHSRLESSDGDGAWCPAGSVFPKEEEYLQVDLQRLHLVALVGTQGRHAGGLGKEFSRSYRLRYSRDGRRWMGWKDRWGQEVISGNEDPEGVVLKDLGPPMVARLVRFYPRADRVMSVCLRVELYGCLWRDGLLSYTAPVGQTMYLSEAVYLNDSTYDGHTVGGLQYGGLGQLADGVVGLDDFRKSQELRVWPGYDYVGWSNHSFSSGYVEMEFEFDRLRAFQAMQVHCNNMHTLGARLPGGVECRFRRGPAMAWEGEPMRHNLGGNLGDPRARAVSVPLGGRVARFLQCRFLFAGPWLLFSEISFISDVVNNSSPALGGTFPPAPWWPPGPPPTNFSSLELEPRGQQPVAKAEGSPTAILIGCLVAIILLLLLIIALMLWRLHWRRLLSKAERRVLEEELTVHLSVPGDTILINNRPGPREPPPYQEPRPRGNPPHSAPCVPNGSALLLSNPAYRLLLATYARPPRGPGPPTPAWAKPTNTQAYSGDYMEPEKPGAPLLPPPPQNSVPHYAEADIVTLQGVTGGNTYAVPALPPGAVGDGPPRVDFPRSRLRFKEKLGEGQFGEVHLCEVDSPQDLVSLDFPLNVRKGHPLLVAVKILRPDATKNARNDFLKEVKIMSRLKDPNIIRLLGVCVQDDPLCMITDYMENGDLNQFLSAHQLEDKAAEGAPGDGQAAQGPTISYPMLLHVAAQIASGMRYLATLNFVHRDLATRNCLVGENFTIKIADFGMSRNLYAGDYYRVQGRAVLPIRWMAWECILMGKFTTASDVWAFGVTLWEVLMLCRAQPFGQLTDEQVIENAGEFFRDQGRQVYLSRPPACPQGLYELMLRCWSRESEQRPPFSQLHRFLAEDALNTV

Which results are given for `C[C@@H]1c2scc(C(=O)Nc3cccc(C(F)(F)F)c3)c2CCN1C(=O)c1cnc2ccccn12` [Example 100, (R)-6-(imidazo[1,2-a]pyridine-3-carbonyl)-7-methyl-N-(3-(trifluoromethyl)phenyl)-4,5,6,7-tetrahydrothieno[2,3-c]pyridine-3-carboxamide]?
Ki [1]: < 25 nM; Ki [2]: < 25 nM; IC50 [3]: < 25 nM; IC50 [4]: < 25 nM

For `Cc1cn(-c2cc(NC(=O)c3csc4c3CCN(C(=O)c3cnc5ccccn35)[C@@H]4C)cc(C(F)(F)F)c2)cn1` [Example 101, (R)-6-(imidazo[1,2-a]pyridine-3-carbonyl)-7-methyl-N-(3-(4-methyl-1H-imidazol-1-yl)-5-(trifluoromethyl)phenyl)-4,5,6,7-tetrahydrothieno[2,3-c]pyridine-3-carboxamide], which Ki [1] is on record?
The Ki was under 25 nM.

And the Ki [2]?
The Ki was under 25 nM.

What about the IC50 [3] of the same molecule?
Its IC50 is under 25 nM.

And the IC50 [4]?
Its IC50 is under 25 nM.

`CC1(C)c2scc(C(=O)Nc3cccc(C(F)(F)F)c3)c2CCN1C(=O)c1cnc2ccccn12` [Example 102, 6-(imidazo[1,2-a]pyridine-3-carbonyl)-7,7-dimethyl-N-(3-(trifluoromethyl)phenyl)-4,5,6,7-tetrahydrothieno[2,3-c]pyridine-3-carboxamide] was tested. Which Ki [1] did it give?
Its Ki is under 25 nM.

And the Ki [2]?
The Ki was under 25 nM.

What about the IC50 [3] of the same molecule?
Its IC50 is 25 to 50 nM.

And the IC50 [4]?
The IC50 was under 25 nM.

Which results are given for `CC1c2scc(C(=O)Nc3cccc(C(F)(F)F)c3)c2CCN1Cc1cnc2cnccn12` (stereo not drawn) [Example 103, 6-(imidazo[1,2-a]pyrazin-3-ylmethyl)-7-methyl-N-(3-(trifluoromethyl)phenyl)-4,5,6,7-tetrahydrothieno[2,3-c]pyridine-3-carboxamide]?
Ki [1]: < 25 nM; Ki [2]: < 25 nM; IC50 [3]: 25 to 50 nM; IC50 [4]: < 25 nM

With `O=C(Nc1cncc(C(F)(F)F)c1)c1csc2c1CCN(C(=O)c1cnn3ccncc13)C2` [Example 108, 6-(pyrazolo[1,5-a]pyrazine-3-carbonyl)-N-(5-(trifluoromethyl)pyridin-3-yl)-4,5,6,7-tetrahydrothieno[2,3-c]pyridine-3-carboxamide] as the molecule, how does the Ki [1] read?
Its Ki is under 25 nM.

And the Ki [2]?
The Ki was under 25 nM.

What about the IC50 [3] of the same molecule?
The IC50 was 25 to 50 nM.

And the IC50 [4]?
Its IC50 is under 25 nM.

With `CC(C)(C)c1cc(NC(=O)c2csc3c2CCN(Cc2cnc4[nH]ncc4c2)C3)on1` [Example 133, 6-((1H-pyrazolo[3,4-b]pyridin-5-yl)methyl)-N-(3-(tert-butyl)isoxazol-5-yl)-4,5,6,7-tetrahydrothieno[2,3-c]pyridine-3-carboxamide] as the molecule, how does the Ki [1] read?
The Ki was under 25 nM.

And the Ki [2]?
The Ki was under 25 nM.

And the IC50 [3]?
Its IC50 is under 25 nM.

What about the IC50 [4] of the same molecule?
Its IC50 is under 25 nM.

With `CC(C)(C)c1cc(NC(=O)c2csc3c2CCN(Cc2cnc4[nH]ncc4c2)C3)no1` [Example 134, 6-((1H-pyrazolo[3,4-b]pyridin-5-yl)methyl)-N-(5-(tert-butyl)isoxazol-3-yl)-4,5,6,7-tetrahydrothieno[2,3-c]pyridine-3-carboxamide] as the molecule, how does the Ki [1] read?
The Ki was under 25 nM.

What about the Ki [2] of the same molecule?
The Ki was under 25 nM.

And the IC50 [3]?
The IC50 was under 25 nM.

And the IC50 [4]?
The IC50 was under 25 nM.

Which results are given for `CN1CCN(c2ccc3ncc(C(=O)N4CCc5c(C(=O)Nc6cccc(C(F)(F)F)c6)csc5C4)n3c2)CC1` [Example 136, 6-(6-(4-methylpiperazin-1-yl)imidazo[1,2-a]pyridine-3-carbonyl)-N-(3-(trifluoromethyl)phenyl)-4,5,6,7-tetrahydrothieno[2,3-c]pyridine-3-carboxamide]?
Ki [1]: < 25 nM; Ki [2]: < 25 nM; IC50 [3]: < 25 nM; IC50 [4]: < 25 nM

For `Cc1n[nH]c2ncc(CN3CCc4c(C(=O)Nc5cncc(C(F)(F)F)c5)csc4C3)cc12` [Example 150, 6-((3-methyl-1H-pyrazolo[3,4-b]pyridin-5-yl)methyl)-N-(5-(trifluoromethyl)pyridin-3-yl)-4,5,6,7-tetrahydrothieno[2,3-c]pyridine-3-carboxamide], which Ki [1] is on record?
Its Ki is under 25 nM.

And the Ki [2]?
Its Ki is under 25 nM.

What about the IC50 [3] of the same molecule?
The IC50 was under 25 nM.

And the IC50 [4]?
The IC50 was under 25 nM.
